Values joined by “and” are separate entries in the source; they are usually repeats but may differ in a detail not shown here. Equal values may be shown once.
Columns and labels:
Type in all cases: in vivo
Details in all cases: 20-21 days after application
[1] = tested on: barnyard grass, Echinochloa crus-galli (L.) P. Beauv. (ECHCG); assay: Foliar-applied greenhouse weed control, barnyard grass (ECHCG)
Protocol: (§1) The soil matrix was contained in plastic pots with a volume of 1 quart and a surface area of 83.6 cm^2. When required, to ensure good germination and healthy plants, a fungicide treatment and/or other chemical or physical treatment was applied. The plants were grown for 10-22 days in a greenhouse with an approximate 14 h photoperiod which was maintained at about 29° C. during the day and 26° C. during the night. Nutrients (Peters Excel® 15-5-15 5-Ca 2-Mg and iron chelate) were applied in the irrigation solution as needed and water was added on a regular basis. Supplemental lighting was provided with overhead metal halide 1000-Watt lamps as necessary. The plants were employed for testing when they reached the second or third true leaf stage. […] The compounds were applied on an active ingredient basis. […] All stock solutions and applications solutions were visually inspected for compound compatibility prior to application. […] Control plants were sprayed in the same manner with the solvent blank. The treated plants and control plants were placed in a greenhouse as described above and watered by sub-irrigation to prevent wash-off of the test compounds. […] Colby's equation was used to determine the herbicidal effects expected from the mixtures. The combinations tested, ratios employed, plant species tested, and results are included in Table 1 below.

[2] = tested on: ivyleaf morning glory, Ipomoea hederacea (L.) Jacq. (IPOHE); assay: Foliar-applied greenhouse weed control, ivyleaf morning glory (IPOHE)
Protocol: as §1

[3] = tested on: junglerice, Echinochloa colonum (L.) LINK (ECHCO); assay: Foliar-applied greenhouse weed control, junglerice (ECHCO)
Protocol: as §1

[4] = tested on: large crabgrass, Digitaria sanguinalis (L.) Scop. (DIGSA); assay: Foliar-applied greenhouse weed control, large crabgrass (DIGSA)
Protocol: as §1

[5] = tested on: yellow nutsedge, Cyperus esculentus L. (CYPES); assay: Foliar-applied greenhouse weed control, yellow nutsedge (CYPES)
Protocol: as §1

For `CC1=CC1` [1-methylcyclopropene, reference compound], the “1-methylcyclopropene % Visual Weed Control” value ([1]; 2 g ai/ha alone) was 0%, the “1-methylcyclopropene % Visual Weed Control” value ([1]; 4 g ai/ha alone) was 0% and the “1-methylcyclopropene % Visual Weed Control” value ([1]; 5 g ai/ha alone) was 0%. For the same molecule, the “1-methylcyclopropene % Visual Weed Control” value ([1]; 10 g ai/ha alone) was 0%, the “1-methylcyclopropene % Visual Weed Control” value ([1]; 20 g ai/ha alone) was 0% and the “1-methylcyclopropene % Visual Weed Control” value ([2]; 2 g ai/ha alone) was 0%. For the same molecule, the “1-methylcyclopropene % Visual Weed Control” value ([2]; 4 g ai/ha alone) was 0%, the “1-methylcyclopropene % Visual Weed Control” value ([2]; 5 g ai/ha alone) was 0% and the “1-methylcyclopropene % Visual Weed Control” value ([2]; 10 g ai/ha alone) was 0%. The “1-methylcyclopropene % Visual Weed Control” value ([3]; 2 g ai/ha alone) was 0%, the “1-methylcyclopropene % Visual Weed Control” value ([3]; 4 g ai/ha alone) was 0% and the “1-methylcyclopropene % Visual Weed Control” value ([4]; 2 g ai/ha alone) was 0%. The “1-methylcyclopropene % Visual Weed Control” value ([4]; 4 g ai/ha alone) was 0%, the “1-methylcyclopropene % Visual Weed Control” value ([4]; 5 g ai/ha alone) was 0% and the “1-methylcyclopropene % Visual Weed Control” value ([4]; 10 g ai/ha alone) was 0%. The “1-methylcyclopropene % Visual Weed Control” value ([4]; 20 g ai/ha alone) was 0% and the “1-methylcyclopropene % Visual Weed Control” value ([5]; 5 g ai/ha alone) was 0%.
With `COc1c(Cl)ccc(-c2nc(C(=O)OCc3ccccc3)c(Cl)c(N)c2F)c1F` [Formula (II) benzyl ester, benzyl ester of 4-amino-3-chloro-5-fluoro-6-(4-chloro-2-fluoro-3-methoxy-phenyl) pyridine-2-carboxylic acid] the “Formula (II) benzyl ester % Visual Weed Control” value ([1]; 8 g ai/ha alone) was 40% and 63%, the “Formula (II) benzyl ester % Visual Weed Control” value ([1]; 16 g ai/ha alone) was 63% and 78% and the “Formula (II) benzyl ester % Visual Weed Control” value ([1]; 32 g ai/ha alone) was 83% and 90%. For the same molecule, the “Formula (II) benzyl ester % Visual Weed Control” value ([2]; 16 g ai/ha alone) was 18% and 25%, the “Formula (II) benzyl ester % Visual Weed Control” value ([2]; 32 g ai/ha alone) was 35% and 48% and the “Formula (II) benzyl ester % Visual Weed Control” value ([3]; 8 g ai/ha alone) was 50%. The “Formula (II) benzyl ester % Visual Weed Control” value ([3]; 16 g ai/ha alone) was 50%, the “Formula (II) benzyl ester % Visual Weed Control” value ([3]; 32 g ai/ha alone) was 80% and the “Formula (II) benzyl ester % Visual Weed Control” value ([4]; 8 g ai/ha alone) was 13% and 20%. The “Formula (II) benzyl ester % Visual Weed Control” value ([4]; 16 g ai/ha alone) was 23% and 28%, the “Formula (II) benzyl ester % Visual Weed Control” value ([4]; 32 g ai/ha alone) was 30% and 33% and the “Formula (II) benzyl ester % Visual Weed Control” value ([5]; 8 g ai/ha alone) was 70%. For the same molecule, the “Formula (II) benzyl ester % Visual Weed Control” value ([5]; 16 g ai/ha alone) was 88% and the “Formula (II) benzyl ester % Visual Weed Control” value ([5]; 32 g ai/ha alone) was 73%.

— patent US9854801B2, “Weed control from applications of an ethylene inhibitor and a pyridine carboxylic acid herbicide” (Dow AgroSciences LLC, priority 2015, dated 2018)
